Experimental data: US10287581B2, “Cell penetrating peptides for intracellular delivery of molecules” (AADIGEN, LLC, priority 2011, dated 2019)
Read-outs that look alike come from different tables or passages of the source. Each block holds one substance with its values, some of them ahead of it.

What was measured:
[1] = Binding of FAM-guanosine to VEPEP-6 by FAM fluorescence; settings: cargo FAM-guanosine
Experimental: (§1) FIG. 3: Binding of small hydrophobic molecules to VEPEP-6 as monitored by fluorescence spectroscopy. The binding of Doxorubicin, AZT and Porphyrin to VEPEP-6 was monitored by following the quenching of tryptophan-intrinsic VEPEP-6 fluorescence and that of fluoresceine-labelled-Guanosine (FAM-G) by monitoring FAM-fluorescence. Dissociation constants were calculated from data fitting.
FIGS. 8A and 8B: (8A) Binding of small hydrophobic fluorescent molecules (SFM) to VEPEP-6 as monitored by fluorescence spectroscopy. In the present case, a fluorescently labeled nucleotide (fluorescein-labeled-Guanine) was used. Dissociation constants were calculated from data fitting. (8B) Effect of VEPEP-6 mediated doxorubicin on cancer cell viability. Dose responses of free (white bars) and VEPEP-6 mediated (grey bars) doxorubicin have been evaluated on the viability of U2OS and MCF7 cancer cells.
(§2) VEPEP-6 peptides also form stable particles with small aromatic and/or hydrophobic molecules including daunomycin, Paclitaxel, doxorubicin, AZT, porphyrin, FAM-G or fluorescent dyes (FIG. 3). The dissociation constant for small hydrophobic molecule ranges between 0.03 to 4 μM, depending on the nature of the dyes and of the peptides.

siRNA = assay: Binding of siRNA to VEPEP-6 peptides by fluorescence spectroscopy
Experimental: (§3) FIG. 2: Binding of nucleic acid to VEPEP-6a as monitored by TRP-intrinsic fluorescence spectroscopy. Dissociation constants were calculated from data fitting. Nucleic acids used: double stranded DNA (45/35 mer), siRNA (19/19 or 25/25) and single stranded DNA (19 or 36 mer)
(§4) VEPEP-6 peptide form stable complexes with siRNA, single stranded and double stranded oligonucleotides. The binding of cargos to VEPEP-6 was monitored by fluorescence spectroscopy using the both intrinsic Trp group of VEPEP-6 (3 to 5 Trp-residues) and extrinsic fluorescently labeled cargoes (using Cy3, Cy5 or FITC). Fluorescence experiments were performed on a PTI spectrofluorimeter at 25° C. in a NaCl 154 mM buffer. Intrinsic Trp-fluorescence of VEPEP-6 was excited at 290 nm and emission spectrum was recorded between 310 and 400 nm, with a spectral band-pass of 2 and 8 nm for excitation and emission, respectively. FITC-fluorescence of labelled-siRNA or DNA was excited at 492 nm and emission recorded between 500 and 580 nm. For VEPEP-6/siRNA interaction, 0.5 μM of FITC-labelled siRNA was titrated by increasing concentrations of peptide. All measurements were corrected for the dilution and curve fitting were performed by using Grafit software (Erithacus). Curve fitting reveal that VEPEP-6 strongly binds the different cargoes with dissociation constant in the nanomolar range (Table 1 and FIG. 2).
(§5) Binding of nucleic acid to ST-VEPEP-6aa was monitored by fluorescence spectroscopy using both TRP-intrinsic and fluorescently labelled nucleic acids. Dissociation constants were calculated from data fitting. Nucleic acids used were double stranded siRNA (19/19 or 25/25) and single stranded DNA (36 mer).

[2] = Binding of porphyrin to VEPEP-6 by quenching of tryptophan fluorescence; settings: cargo porphyrin
Experimental: as §1, §2

[3] = tested on: DD-DNA: double-stranded DNA; assay: Binding of double-stranded DNA to VEPEP-6 peptides by fluorescence spectroscopy; settings: cargo DD-DNA
Experimental: as §3, §4

[4] = tested on: SS-DNA: single-stranded DNA; assay: Binding of single-stranded DNA to VEPEP-6 peptides by fluorescence spectroscopy
Experimental: as §3, §4, §5

[5] = Binding of AZT to VEPEP-6 by quenching of tryptophan fluorescence; settings: cargo AZT
Experimental: as §1, §2

[6] = Binding of doxorubicin to VEPEP-6 by quenching of tryptophan fluorescence; settings: cargo Doxorubicin
Experimental: as §1, §2

cyclin B1 = assay: Cyclin B1 silencing at protein (Western blotting) and mRNA (Quantigen) level; assay type: cell-based, Human; settings: 200 nM siRNA complexed with VEPEP-6 at a 1/20 ratio
Experimental: FIGS. 6A-6C: VEPEP-6 dose response of Cyclin B1 silencing at the protein and mRNA levels on Hela (6A) and HS68 (6B) cells. Stock solution of VEPEP-6/siRNA ([…]) particles were prepared at a molar ratio of 1/20 (siRNA/VEPEP-6), and lower concentrations (from 200 nM to 0.125 nM) were obtained by serial dilution of the stock solution in PBS. HeLa (Panel A) and HS-68 (Panel B) cells (60% confluency) were overlaid with preformed complexes for 30 min, then fresh DMEM supplemented with 10% FCS was added directly to the cells, which were then returned to the incubator for 24 hrs. Cyclin B1 protein levels were determined by Western Blotting using Cdk2 as a control for quantification (white bars). Cyclin B1 mRNA levels were measured 12 hrs after transfection using Quantigen technology (black bars). Mismatched Cyc-B3 siRNA associated with VEPEP-6 (200 nM) and empty VEPEP-6 particles (20 μM) were used as a control. 6C: Dose-response of G2-arrest associated with Cyclin B1 silencing. HeLa (black bars) and HS68 (white bars) cells were treated with increasing concentrations of VEPEP-6/siRNA-Cyc-B1 from 0.25 nM to 20 nM. The cell cycle status was evaluated by FACS analysis. […]
Cyclin B1 mRNA and protein levels were determined 12 and 24 hrs following transduction, using Quantigen (Panomics Inc.) and Western blotting, respectively. […]

[7] = cargo siRNA, 25° C., NaCl 154 mM buffer, read-out: Kd

Substance: Ac-[βA/S]LWRALWRL[L/I]RALWRLLW[K/R]A-cysteamide [VEPEP-6e]
- Binding [1]: yes
- Kd [1]: 2300 nM
- Binding (siRNA; cargo siRNA): yes
- Kd (siRNA; [7]): 10 to 20 nM
- Binding [2]: yes
- Kd [2]: 200 nM
- Binding [3]: yes
- Kd [3]: 200 nM
- Binding ([4]; cargo SS-DNA): yes
- Kd ([4]; cargo SS-DNA, read-out: Kd): 50 to 100 nM
- Binding [5]: yes
- Kd [5]: 900 nM
- Binding [6]: yes
- Kd [6]: 500 nM

Substance: Ac-[βA/S]LFRALWRLLR[S/T]LWRLLW[K/R]-cysteamide [VEPEP-6a]
- Binding [1]: no
- Binding (siRNA; cargo siRNA): yes
- Kd (siRNA; [7]): 10 to 20 nM
- Binding [2]: yes
- Kd [2]: 4000 nM
- Binding [3]: yes
- Kd [3]: 200 nM
- Binding ([4]; cargo SS-DNA): yes
- Kd ([4]; cargo SS-DNA, read-out: Kd): 50 to 100 nM
- Binding [5]: no
- Binding [6]: yes
- Kd [6]: 1000 nM

Substance: Ac-[βA/S]LWRALWRLWR[S/T]LWRLLW[K/R]A-cysteamide [VEPEP-6b]
- Binding [1]: no
- Binding (siRNA; cargo siRNA): yes
- Kd (siRNA; [7]): 10 to 20 nM
- Binding [2]: yes
- Kd [2]: 5000 nM
- Binding [3]: yes
- Kd [3]: 200 nM
- Binding ([4]; cargo SS-DNA): yes
- Kd ([4]; cargo SS-DNA, read-out: Kd): 50 to 100 nM
- Binding [5]: no
- Binding [6]: yes
- Kd [6]: 700 nM

Substance: si-GAPDH: unrelated siRNA targeting GAPDH, SEQ ID No: 21/22 (chain 1 CAUCAUCCCUGCCUCUACUTT; chain 2 AGUAGAGGCAGGGAUGAUG; chemistry not given here)
- effect on cyclin B1 levels and cell cycle progression (cyclin B1): no effect

Results, then the substance that gave them:

- Kd (siRNA; double stranded nucleic acid (siRNA 19/19 or 25/25), read-out: dissociation constant): 7 nM
- Kd ([4]; single stranded nucleic acid (DNA 36 mer), read-out: dissociation constant): 4 nM
Substance: Ac-X1LFLARWRsLLRSsLWRLLWK-cysteamide [ST-VEPEP-6aa]

- Binding [1]: yes
- Kd [1]: 2800 nM
- Binding (siRNA; cargo siRNA): yes
- Kd (siRNA; [7]): 10 to 20 nM
- Binding [2]: yes
- Kd [2]: 200 nM
- Binding [3]: yes
- Kd [3]: 200 nM
- Binding ([4]; cargo SS-DNA): yes
- Kd ([4]; cargo SS-DNA, read-out: Kd): 50 to 100 nM
- Binding [5]: yes
- Kd [5]: 2400 nM
- Binding [6]: yes
- Kd [6]: 200 nM
Substance: Ac-[βA/S]LWRALWRL[L/C/I]RNLWRLLW[K/R]A-cysteamide [VEPEP-6f]

- Binding [1]: yes
- Kd [1]: 800 nM
- Binding (siRNA; cargo siRNA): yes
- Kd (siRNA; [7]): 10 to 20 nM
- Binding [2]: yes
- Kd [2]: 500 nM
- Binding [3]: yes
- Kd [3]: 200 nM
- Binding ([4]; cargo SS-DNA): yes
- Kd ([4]; cargo SS-DNA, read-out: Kd): 50 to 100 nM
- Binding [5]: yes
- Kd [5]: 100 nM
- Binding [6]: yes
- Kd [6]: 500 nM
Substance: Ac-[βA/S]LWRALWRLWR[S/T]LWRLWR[K/R]A-cysteamide [VEPEP-6d]

- Binding [1]: yes
- Kd [1]: 4000 nM
- Binding (siRNA; cargo siRNA): yes
- Kd (siRNA; [7]): 10 to 20 nM
- Binding [2]: yes
- Kd [2]: 1200 nM
- Binding [3]: yes
- Kd [3]: 200 nM
- Binding ([4]; cargo SS-DNA): yes
- Kd ([4]; cargo SS-DNA, read-out: Kd): 50 to 100 nM
- Binding [5]: yes
- Kd [5]: 300 nM
- Binding [6]: yes
- Kd [6]: 30 nM
Substance: Ac-[βA/S]LWRALWRL[L/C/I]R[S/T]LWRLWR[K/R]A-cysteamide [VEPEP-6c]
